Reference: patent USRE48335E1, “Polymyxin derivatives as antimicrobial compounds” (priority 2014, dated 2020)
≈ marks a conversion by molar mass, not a printed value. Positions of bridges follow the written chain, without caps; N, C: chain ends. Non-standard residues stand in square brackets, D forms with d. Residues, ends and D or L forms follow the SMILES beside them. *: point of attachment. Heptanoyl(6-Me) = CC(C)CCCCC(=O)*; X1 = CC[C@H](C)CCCCC(=O)*; Dab = NCC[C@H](N)C(=O)O

What was measured:
[1] = tested on: Acinetobacter baumannii
Summary of the method: (§1)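 Read-out is the MIC, obtained by broth microdilution under CLSI guidance. Lipopeptides (TFA salt form) were diluted in cation-adjusted Mueller-Hinton broth, with polymyxin B sulphate run alongside as control.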

[2] = tested on: Enterobacter cloacae
Summary of the method: as §1

[3] = tested on: Klebsiella pneumoniae
Summary of the method: as §1

[4] = tested on: Pseudomonas aeruginosa
Summary of the method: as §1

[5] = tested on: A. baumannii ATCC 19606; assay: In vivo efficacy in mouse blood infection model (neutropenic Swiss mice); conditions: compound, free base 4 mg/kg intravenously 2 h after inoculation, blood at 4 h
Summary of the method: (§2)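 Neutropenic Swiss mice (cyclophosphamide 150 mg/kg day −4, 100 mg/kg day −1, i.p.) infected i.v. with early log-phase bacteria; 4 mg/kg free base i.v. given 2 h post-inoculation. Blood CFU by cardiac puncture 4 h post-dose; Δlog10 CFU/mL treated versus saline controls.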

[6] = tested on: K. pneumoniae FADDI-KP032; assay: as above; conditions: compound, free base 4 mg/kg intravenously 2 h after inoculation, blood at 4 h
Summary of the method: as §2

[7] = tested on: P. aeruginosa ATCC 27853; assay: as above; conditions: compound, free base 4 mg/kg intravenously 2 h after inoculation, blood at 4 h
Summary of the method: as §2

[8] = Nephrotoxicity in a mouse model (kidney histology score); type: in vivo; set-up: key to Max Overall Kidney Histology Score: product of % score and grade score (grade 1-3); 30 to <45 = moderate; conditions: mice, subcutaneous 12 mg base/kg, 6 doses in one day every 2 h
Description: PMB sulphate (Batch 20120204) and colistin sulphate (Batch 20120719) were supplied by Betapharma (Shanghai Co., Ltd, China). […] At ˜20 h after the last dose, mice were euthanised by inhalation of an overdose of isoflurane. […] The formalin-fixed kidneys were then sent to the Australian Phenomics Network-Histopathology and Organ Pathology (The University of Melbourne, Parkville, VIC, Australia) for histological examination. The samples were examined by a pathologist who was blind to the treatment groups. Lesions were rated as follows: mild acute tubular damage with tubular dilation, prominent nuclei and a few pale […] tubular casts (Grade 1); severe acute tubular damage with necrosis of tubular epithelial cells and numerous tubular casts (Grade 2); acute cortical necrosis/infarction of tubules and glomeruli with or without papillary necrosis (Grade 3). […] The overall kidney histology score was calculated as the product of percentage score and grade score. […] These scores were assigned as follows: […] SQS+3=moderate damage (overall score, 30 to <45); […]

Compound	MIC [1] [mg/L]	Minimum inhibitory concentration (MIC), Ab ATCC 17978 [1] [mg/L]	Minimum inhibitory concentration (MIC), Ab ATCC 19606 [1] [mg/L]	Minimum inhibitory concentration (MIC), Ab FADDI-AB034 [1] [mg/L]	Minimum inhibitory concentration (MIC), Ec FADDI-EC001 [2] [mg/L]	Minimum inhibitory concentration (MIC), Ec FADDI-EC003 [2] [mg/L]	Minimum inhibitory concentration (MIC), Ec FADDI-EC006 [2] [mg/L]	MIC [3] [mg/L]	MIC [4] [mg/L]	Minimum inhibitory concentration (MIC), Pa ATCC 27853 [4] [mg/L]	Minimum inhibitory concentration (MIC), Pa FADDI-PA022 [4] [mg/L]	Minimum inhibitory concentration (MIC), Pa FADDI-PA025 [4] [mg/L]	Δ log (Treated-Control at 4 h) [5] [log10 CFU/mL]	Δ log (Treated-Control at 4 h) [6] [log10 CFU/mL]	Δ log (Treated-Control at 4 h) [7] [log10 CFU/mL]	also measured
CC(C)CCCCC(=O)N[C@@H](CCN)C(=O)N[C@H](C(=O)N[C@H](CO)C(=O)N[C@H]1CCNC(=O)[C@H]([C@@H](C)O)NC(=O)[C@H](CCN)NC(=O)[C@H](CCN)NC(=O)[C@H]([C@@H](C)O)NC(=O)[C@@H](CC(C)C)NC(=O)[C@H](CCN)NC1=O)[C@@H](C)O [Compound 151, polymyxin D2] ({Heptanoyl(6-Me)}-[Dab]T[dS][Dab][Dab][dL]T[Dab][Dab]T; lactam 4-C)	0.5 (≈ 0.442 µM)	0.25 (≈ 0.221 µM)	0.5 (≈ 0.442 µM)	0.5 (≈ 0.442 µM)	0.25 (≈ 0.221 µM)	0.25 (≈ 0.221 µM)	0.25 (≈ 0.221 µM)	0.5 (≈ 0.442 µM)	4 (≈ 3.54 µM)	4 (≈ 3.54 µM)	4 (≈ 3.54 µM)	>32	−1.59	−4.71	−0.40	
CC[C@H](C)CCCCC(=O)N[C@@H](CCN)C(=O)N[C@H](C(=O)N[C@@H](CCN)C(=O)N[C@H]1CCNC(=O)[C@H]([C@@H](C)O)NC(=O)[C@H](CCN)NC(=O)[C@H](CCN)NC(=O)[C@H]([C@@H](C)O)NC(=O)[C@@H](CC(C)C)NC(=O)[C@H](CCN)NC1=O)[C@@H](C)O [Compound 152, polymyxin M1] (X1-[Dab]T[Dab][Dab][Dab][dL]T[Dab][Dab]T; lactam 4-C)	1 (≈ 0.864 µM)	1 (≈ 0.864 µM)	1 (≈ 0.864 µM)	1 (≈ 0.864 µM)	0.5 (≈ 0.432 µM)	0.5 (≈ 0.432 µM)	0.25 (≈ 0.216 µM)	0.5 (≈ 0.432 µM)	1 (≈ 0.864 µM)	1 (≈ 0.864 µM)	1 (≈ 0.864 µM)	32 (≈ 27.6 µM)	−1.61	−3.86	−3.24	
CC(C)CCCCC(=O)N[C@@H](CCN)C(=O)N[C@H](C(=O)N[C@@H](CCN)C(=O)N[C@H]1CCNC(=O)[C@H]([C@@H](C)O)NC(=O)[C@H](CCN)NC(=O)[C@H](CCN)NC(=O)[C@H]([C@@H](C)O)NC(=O)[C@@H](CC(C)C)NC(=O)[C@H](CCN)NC1=O)[C@@H](C)O [Compound 153, polymyxin M2] ({Heptanoyl(6-Me)}-[Dab]T[Dab][Dab][Dab][dL]T[Dab][Dab]T; lactam 4-C)	2 (≈ 1.75 µM)	2 (≈ 1.75 µM)	2 (≈ 1.75 µM)	1 (≈ 0.875 µM)	0.25 (≈ 0.219 µM)	0.25 (≈ 0.219 µM)	0.5 (≈ 0.437 µM)	0.25 (≈ 0.219 µM)	0.5 (≈ 0.437 µM)	0.5 (≈ 0.437 µM)	4 (≈ 3.5 µM)	>32	−1.26	−3.59	−2.73	
polymyxin B [reference compound]																Minimum inhibitory concentration, Ab A ATCC 17978 ([1]; Acinetobacter baumannii ATCC 17978, broth microdilution in CAMHB): 1 mg/L; Minimum inhibitory concentration, Ab ATCC 19606 ([1]; Acinetobacter baumannii ATCC 19606, broth microdilution in CAMHB): 1 mg/L; Minimum inhibitory concentration, Ab FADDI-AB034 ([1]; Acinetobacter baumannii FADDI-AB034, broth microdilution in CAMHB): 0.5 mg/L; Minimum inhibitory concentration, Ec FADDI-EC001 ([2]; Enterobacter cloacae FADDI-EC001, broth microdilution in CAMHB): 0.25 mg/L; Minimum inhibitory concentration, Ec FADDI-EC003 ([2]; Enterobacter cloacae FADDI-EC003, broth microdilution in CAMHB): 0.5 mg/L; Minimum inhibitory concentration, Ec FADDI-EC006 ([2]; Enterobacter cloacae FADDI-EC006, broth microdilution in CAMHB): 0.5 mg/L; Minimum inhibitory concentration, Pa ATCC 27853 ([4]; Pseudomonas aeruginosa ATCC 27853, broth microdilution in CAMHB): 1 mg/L; Minimum inhibitory concentration, Pa FADDI-PA022 ([4]; Pseudomonas aeruginosa FADDI-PA022, broth microdilution in CAMHB): 1 mg/L; Minimum inhibitory concentration, Pa FADDI-PA025 ([4]; Pseudomonas aeruginosa FADDI-PA025, broth microdilution in CAMHB): 1 mg/L; nephrotoxicity in the in vivo nephrotoxicity model ([8]; kidney histology ~20 h after last dose): severe nephrotoxicity; Max Overall Kidney Histology Score ([8]; kidney ~20 h after last dose, product of percentage score and grade score): 60.0; Max Kidney Histology Score ([8]; semiquantitative score (SQS) 0 to +5): +5 (SQS+5=severe damage (overall score, >60))
